# Measurements from patent publication US12404239B2, “Modulators of BCL6 as ligand directed degraders” (Celgene Corporation, priority 2022, dated 2025).
# Target: T1, BCL6 (Homo sapiens, UniProt P41182)
# T1 construct: HiBiT-tag knocked into endogenous BCL6 locus using CRISPR; endogenous in cells; host or cells: DHL-4_BCL6_HiBiT cells (CRISPR knock-in)
# Assay: BCL6_HiBiT degradation assay (2 h)
# Assay type: cell-based
# Settings: DHL-4_BCL6_HiBiT cells, read-out: YCon (% remaining maximal effect)
# Method in brief: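 DHL-4 cells carrying CRISPR HiBiT knock-in at endogenous BCL6, treated 2 h at 37 °C with 10-point 3-fold dilutions from 1-10 μM. BCL6 level read by Nano-Glo HiBiT lytic luminescence normalized to DMSO; four-parameter fit gives degradation EC50 and Yconstant (% remaining at maximal effect).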
row,Percent BCL6 remaining at maximal degradation (Ycon) [%],Structure (SMILES)
1,> 60,"CN1C(=O)Cc2cc(Nc3nc(N4CC[C@@H](Nc5ccc6c(C7CCC(=O)NC7=O)nn(C)c6c5)[C@@H](C(F)(F)F)C4)ncc3Cl)ccc21 (single isomer, unassigned) [Example 148]"
2,< 20,"CCN1C(=O)Cc2cc(Nc3nc(N4CC[C@@H](Nc5ccc6c(C7CCC(=O)NC7=O)nn(C)c6c5)[C@H](C)C4)ncc3Cl)ccc21 (stereo partly drawn) [Example 69, 3-(6-(((3R,4R)-1-(5-chloro-4-((1-ethyl-2-oxoindolin-5-yl)amino)pyrimidin-2-yl)-3-methylpiperidin-4-yl)amino)-1-methyl-1H-indazol-3-yl)piperidine-2,6-dione]"
3,20 to 60,"CO[C@@H]1CN(c2ncc(Cl)c(Nc3ccc4c(c3)CC(=O)N4C)n2)CC[C@H]1Nc1ccc2c(C3CCC(=O)NC3=O)nn(C)c2c1 (stereo partly drawn) [Example 146, 3-(6-(((3R,4R)-1-(5-chloro-4-((1-methyl-2-oxoindolin-5-yl)amino)pyrimidin-2-yl)-3-methoxypiperidin-4-yl)amino)-1-methyl-1H-indazol-3-yl)piperidine-2,6-dione]"
4,> 60,"Cn1nc(C2CCC(=O)NC2=O)c2ccc(C3CCN(c4ncc(Cl)c(Nc5ccc6c(c5)CC(=O)N6)n4)CC3)cc21 (stereo not shown) [Example 124, 3-[6-[1-[5-chloro-4-[(2-oxoindolin-5-yl)amino]pyrimidin-2-yl]-4-piperidyl]-1-methyl-indazol-3-yl]piperidine-2,6-dione]"
5,> 60,"CN1C(=O)Cc2cc(Nc3nc(NC4CCN(c5ccc6c(C7CCC(=O)NC7=O)nn(C)c6c5)CC4)ncc3Cl)ccc21 (stereo not shown) [Example 40, 3-(6-(4-((5-Chloro-4-((1-methyl-2-oxoindolin-5-yl)amino)pyrimidin-2-yl)amino)piperidin-1-yl)-1-methyl-1H-indazol-3-yl)piperidine-2,6-dione]"
6,< 20,"C[C@@H]1CN(c2ncc(Cl)c(Nc3ccc4c(c3F)CC(=O)N4C)n2)CC[C@H]1Nc1ccc2c(N3CCC(=O)NC3=O)nn(C)c2c1 [Example 142, 1-(6-(((3R,4R)-1-(5-chloro-4-((4-fluoro-1-methyl-2-oxoindolin-5-yl)amino)pyrimidin-2-yl)-3-methylpiperidin-4-yl)amino)-1-methyl-1H-indazol-3-yl)dihydropyrimidine-2,4(1H,3H)-dione]"
7,< 20,"C[C@@H]1CN(c2ncc(Cl)c(Nc3ccc4c(c3)CC(=O)N4CCC(C)(C)F)n2)CC[C@H]1Nc1ccc2c([C@@H]3CCC(=O)NC3=O)nn(C)c2c1 (single isomer, unassigned) [Example 109]"
8,> 60,"CCN1C(=O)Cc2cc(Nc3nc(N4CCC(Nc5ccc6c([C@H]7CCC(=O)NC7=O)nn(C)c6c5)CC4)ncc3Cl)ccc21 (single isomer, unassigned) [Example 90]"
9,> 60,"CN(c1ncc(Cl)c(Nc2ccc3c(c2)N(CCC(C)(C)O)C(=O)C3)n1)C1CCN(c2ccc3c(C4CCC(=O)NC4=O)nn(C)c3c2)CC1 (stereo not shown) [Example 11, 3-(6-(4-((5-chloro-4-((1-(3-hydroxy-3-methylbutyl)-2-oxoindolin-6-yl)amino)pyrimidin-2-yl)(methyl)amino)piperidin-1-yl)-1-methyl-1H-indazol-3-yl)piperidine-2,6-dione]"
10,< 20,"C[C@@H]1CN(c2ncc(Cl)c(Nc3cc(F)c4c(c3)CC(=O)N4C)n2)CC[C@H]1Nc1ccc2c([C@@H]3CCC(=O)NC3=O)nn(C)c2c1 (single isomer, unassigned) [Example 97]"
11,> 60,"CN1C(=O)Cc2cc(Nc3nc(N4CCN(Cc5ccc6c(C7CCC(=O)NC7=O)nn(C)c6c5)CC4)ncc3Cl)ccc21 (stereo not shown) [Example 17, 3-(6-((4-(5-chloro-4-((1-methyl-2-oxoindolin-5-yl)amino)pyrimidin-2-yl)piperazin-1-yl)methyl)-1-methyl-1H-indazol-3-yl)piperidine-2,6-dione]"
12,> 60,"Cn1nc(C2CCC(=O)NC2=O)c2ccc(N3CCC(Nc4ncc(Cl)c(Nc5ccc6c(c5)N(CCC(C)(C)O)C(=O)C6)n4)CC3)cc21 (stereo not shown) [Example 8, 3-(6-(4-((5-chloro-4-((1-(3-hydroxy-3-methylbutyl)-2-oxoindolin-6-yl)amino)pyrimidin-2-yl)amino)piperidin-1-yl)-1-methyl-1H-indazol-3-yl)piperidine-2,6-dione]"
13,20 to 60,"CN1C(=O)Cc2cc(Nc3nc(N4CC[C@H](Nc5ccc6c(C7CCC(=O)NC7=O)nn(C)c6c5)C(F)(F)C4)ncc3Cl)ccc21 (stereo partly drawn) [Example 67, 3-(6-(((S)-1-(5-chloro-4-((1-methyl-2-oxoindolin-5-yl)amino)pyrimidin-2-yl)-3,3-difluoropiperidin-4-yl)amino)-1-methyl-1H-indazol-3-yl)piperidine-2,6-dione]"
14,20 to 60,"CO[C@@H]1CN(c2nc(F)c(Cl)c(Nc3ccc4c(c3)CC(=O)N4C)n2)CC[C@H]1Nc1ccc2c(C3(C)CCC(=O)NC3=O)nn(C)c2c1 (stereo partly drawn) [Example 159, 3-(6-(((3R,4R)-1-(5-chloro-4-fluoro-6-((1-methyl-2-oxoindolin-5-yl)amino)pyrimidin-2-yl)-3-methoxypiperidin-4-yl)amino)-1-methyl-1H-indazol-3-yl)-3-methylpiperidine-2,6-dione]"
15,< 20,"C[C@@H]1CN(c2ncc(Cl)c(Nc3ccc4c(c3)CC(=O)N4CCN3CCOCC3)n2)CC[C@H]1Nc1ccc2c([C@H]3CCC(=O)NC3=O)nn(C)c2c1 (single isomer, unassigned) [Example 102]"
16,> 60,"Cn1nc(C2CCC(=O)NC2=O)c2ccc(NC3CCN(c4ncc(Cl)c(Nc5ccc6c(c5)CC(=O)N6CC(F)(F)F)n4)CC3)cc21 (stereo not shown) [Example 18, 3-(6-((1-(5-chloro-4-((2-oxo-1-(2,2,2-trifluoroethyl)indolin-5-yl)amino)pyrimidin-2-yl)piperidin-4-yl)amino)-1-methyl-1H-indazol-3-yl)piperidine-2,6-dione]"
17,< 20,"CNCCN1C(=O)Cc2cc(Nc3nc(N4CC[C@@H](Nc5ccc6c([C@H]7CCC(=O)NC7=O)nn(C)c6c5)[C@H](C)C4)ncc3Cl)ccc21 (single isomer, unassigned) [Example 105]"
18,20 to 60,"C[C@H]1CN(c2ccc3c(C4CCC(=O)NC4=O)nn(C)c3c2)C(=O)C[C@H]1N(C)c1ncc(Cl)c(Nc2ccc3c(c2)CC(=O)N3C)n1 (stereo partly drawn) [Example 149, 3-(6-((4R,5S)-4-((5-chloro-4-((1-methyl-2-oxoindolin-5-yl)amino)pyrimidin-2-yl)(methyl)amino)-5-methyl-2-oxopiperidin-1-yl)-1-methyl-1H-indazol-3-yl)piperidine-2,6-dione]"
19,20 to 60,"CO[C@@H]1CN(c2ncc(Cl)c(Nc3ccc4c(c3)CC(=O)N4C)n2)CC[C@H]1Nc1ccc2c(N3CCC(=O)NC3=O)nn(C)c2c1 [Example 156, 1-(6-(((3R,4R)-1-(5-chloro-4-((1-methyl-2-oxoindolin-5-yl)amino)pyrimidin-2-yl)-3-methoxypiperidin-4-yl)amino)-1-methyl-1H-indazol-3-yl) dihydropyrimidine-2,4(1H,3H)-dione]"
20,> 60,"C[C@@H]1CN(c2ccc3c(C4CCC(=O)NC4=O)nn(C)c3c2)C[C@H](C)N1c1ncc(Cl)c(Nc2ccc3c(c2)CC(=O)N3C)n1 (stereo partly drawn) [Example 30, 3-(6-((3R,5S)-4-(5-chloro-4-((1-methyl-2-oxoindolin-5-yl)amino)pyrimidin-2-yl)-3,5-dimethylpiperazin-1-yl)-1-methyl-1H-indazol-3-yl)piperidine-2,6-dione]"
21,> 60,"CCN1C(=O)Cc2cc(Nc3nc(N4CCC(Nc5ccc6c(C7CCC(=O)NC7=O)nn(C)c6c5)CC4)ncc3Cl)ccc21 (stereo not shown) [Example 89, 3-(6-((1-(5-chloro-4-((1-ethyl-2-oxoindolin-5-yl)amino)pyrimidin-2-yl)piperidin-4-yl)amino)-1-methyl-1H-indazol-3-yl)piperidine-2,6-dione]"
22,< 20,"C[C@@H]1CN(c2ncc(Cl)c(Nc3cc4c(cc3F)N(C)C(=O)C4)n2)CC[C@H]1Nc1ccc2c(C3CCC(=O)NC3=O)nn(C)c2c1 (stereo partly drawn) [Example 92, 3-(6-(((3R,4R)-1-(5-chloro-4-((6-fluoro-1-methyl-2-oxoindolin-5-yl)amino)pyrimidin-2-yl)-3-methylpiperidin-4-yl)amino)-1-methyl-1H-indazol-3-yl)piperidine-2,6-dione]"
23,< 20,"C[C@H]1C[C@H](Nc2ccc3c(C4CCC(=O)NC4=O)nn(C)c3c2)CCN1c1ncc(Cl)c(Nc2ccc3c(c2)CC(=O)N3C)n1 (stereo partly drawn) [Example 81, 3-(6-(((2S,4R)-1-(5-chloro-4-((1-methyl-2-oxoindolin-5-yl)amino)pyrimidin-2-yl)-2-methylpiperidin-4-yl)amino)-1-methyl-1H-indazol-3-yl)piperidine-2,6-dione]"
24,> 60,"CN1C(=O)Cc2cc(Nc3nc(N4CCN(c5ccc6c(C7CCC(=O)NC7=O)nn(C)c6c5)C(=O)C4)ncc3Cl)ccc21 (stereo not shown) [Example 37, 3-(6-(4-(5-chloro-4-((1-methyl-2-oxoindolin-5-yl)amino)pyrimidin-2-yl)-2-oxopiperazin-1-yl)-1-methyl-1H-indazol-3-yl)piperidine-2,6-dione]"
25,> 60,"Cn1nc(C2CCC(=O)NC2=O)c2ccc(NC3CCN(c4ncc(Cl)c(Nc5ccc6c(c5)N(CCC(C)(C)O)C(=O)C6)n4)CC3)cc21 (stereo not shown) [Example 9, 3-[6-[[1-[5-Chloro-4-[[1-(3-hydroxy-3-methyl-butyl)-2-oxo-indolin-6-yl]amino]pyrimidin-2-yl]-4-piperidyl]amino]-1-methyl-indazol-3-yl]piperidine-2,6-dione]"
